Data from patent US8420776B2, “Ube2G2 binding domain in the ubiquitin ligase gp78 and methods of use thereof” (The United States of America, as Represented by the …, priority 2004, dated 2013).

How the values were obtained:
Assay type in all cases: cell-based
endogenous Ube2G2 = biological target: T1, endogenous Ube2G2 (Homo sapiens, UniProt P60604); experiment: Co-immunoprecipitation of endogenous Ube2G2 with GFP fusions in HEK 293T cells; conditions: anti-GFP IP
T1 construct: endogenous in cells; host or cells: HEK 293T
T1 sequence (P60604 1-165): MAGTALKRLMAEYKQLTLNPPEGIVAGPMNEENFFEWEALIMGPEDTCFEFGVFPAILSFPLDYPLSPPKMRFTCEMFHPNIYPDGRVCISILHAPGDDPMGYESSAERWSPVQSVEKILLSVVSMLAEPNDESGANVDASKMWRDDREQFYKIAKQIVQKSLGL
Description: (§1) Transfections of HT1080, NIH 3T3 and HEK 293T cells were carried out ˜24 hr after plating using Polyfect (Qiagen, Valencia, Calif.) and cells harvested after ˜48 hr. J558 cells were transfected by electroporation using Bio-rad GENE pulser II at settings of 250 v, 950uF. Vector without insert was used to equalize total plasmid. In most experiments 0.15 μg of pEGFP-C1 served as an internal control. For experiments not involving immunoprecipitation, 6×10^5 cells were plated in 6 well plates and cell lysis was with Mammalian Protein Extraction Reagent (Pierce). […] Supernatants were analyzed after a 10,000×g centrifugation using standard techniques for immunoprecipitation, SDS-PAGE, immunoblotting and ECL. […]
(§2) FIG. 6 depicts the specific binding of gp78 residues 574-611 (of SEQ ID NO:2) to endogenous Ube2G2 in HEK 293T cells. Cells were transfected with plasmids encoding GFP fusions of the indicated regions of gp78, and co-immunoprecipitation was evaluated. […]
(§3) To determine the specificity of E2 binding in cells, GFP fusions encompassing the E2 binding region were expressed in cells, and co-immunoprecipitation of endogenous E2 was tested using antibodies raised specifically against Ube2g1, Ube2G2 and UbcH5B (FIG. 19B). […] In contrast, and consistent with the in vitro binding data in FIG. 18, no association with endogenous UbcH5B or Ube2g1 was detected (FIG. 19B third and fourth panels, left). […]

endogenous Ube2g1 = biological target: T2, endogenous Ube2g1 (Homo sapiens, UniProt P62253); experiment: Co-immunoprecipitation of endogenous Ube2G1 with GFP fusions in HEK 293T cells; conditions: anti-GFP IP
T2 construct: endogenous in cells; host or cells: HEK 293T
T2 sequence (P62253 1-170): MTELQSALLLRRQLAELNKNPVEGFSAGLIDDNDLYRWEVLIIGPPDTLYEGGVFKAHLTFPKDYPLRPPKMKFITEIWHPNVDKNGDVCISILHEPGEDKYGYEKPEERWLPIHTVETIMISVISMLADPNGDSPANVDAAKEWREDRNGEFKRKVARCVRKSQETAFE
Description: as §1, §2, §3

endogenous UbcH5B = biological target: T3, endogenous UbcH5B (Homo sapiens, UniProt P62837); experiment: Co-immunoprecipitation of endogenous UbcH5B with GFP fusions in HEK 293T cells; conditions: anti-GFP IP
T3 construct: endogenous in cells; host or cells: HEK 293T
Description: as §1, §2, §3

ERAD substrate CD3-δ = experiment: CD3-δ level in co-transfected cells by immunoblotting; conditions: co-transfection with CD3-δ, immunoblot
Description: (§4) Transfections of HT1080, NIH 3T3 and HEK 293T cells were carried out ˜24 hr after plating using Polyfect (Qiagen, Valencia, Calif.) and cells harvested after ˜48 hr. J558 cells were transfected by electroporation using Bio-rad GENE pulser II at settings of 250 v, 950uF. Vector without insert was used to equalize total plasmid. In most experiments 0.15 μg of pEGFP-C1 served as an internal control. For experiments not involving immunoprecipitation, 6×10^5 cells were plated in 6 well plates and cell lysis was with Mammalian Protein Extraction Reagent (Pierce). For immunoprecipitation, 2.4×10^6 cells were seeded in 100 mm dishes and cells were lysed in RIPA buffer (1×PBS, 1% Nonidet P40. 0.5% sodium deoxycholate, 0.1% SDS). Lysis buffers were supplemented with Protease Inhibitor Cocktail (Sigma) and 10 mM iodoacetamide. Supernatants were analyzed after a 10,000×g centrifugation using standard techniques for immunoprecipitation, SDS-PAGE, immunoblotting and ECL. Treatment of cells with MG132 (Sigma) was at 50 μM for eight hr. Cycloheximnide was used at 50 μg/ml. All cells were collected at the end of the six hr chase.
FIG. 7 depicts the stabilization of CD3-δ protein in cells transfected with the G2BD, but not with the G2BD with amino acids 579-584 (of SEQ ID NO:2) mutated. HEK 293T cells were transfected with the ERAD substrate CD3-δ along with the indicated GFP fusions of gp78. The left and right sides are two separate experiments.
(§5) To test this, GFP fusions of either a minimal E2 binding domain (GFP-574-611) or a more extended region that includes the C-terminus of gp78 (GFP-574-643) were evaluated (FIG. 21A). […] To assess this further, the C-terminal region of gp78 was fused to the eight amino acid Flag tag. […] Mdm2 is a RING finger E3 for both itself and p53 that is neither an ERAD substrate nor known to utilize Ube2G2 as an E2. […] To establish with certainty that the effect observed with expression of the Ube2G2 binding site is a consequence of binding endogenous E2, and not due to other unanticipated effects, cells were co-transfected with increasing amounts of Ube2G2 (FIG. 21C, lanes 3 and 4). […] These findings clearly establish that the isolated E2 binding site has the potential to markedly alter ERAD of CD3-δ. To ensure the effect observed was not peculiar to one substrate, TCR-α was evaluated (FIG. 21D).

ERAD substrate TCR-α = experiment: TCR-α level in co-transfected cells; conditions: co-transfection with TCR-α
Description: as §4
FIG. 9 depicts the stabilization of endogenous TCRα by the G2BD. TCR-α is a subunit of the T cell antigent receptor and an ERAD substrate. TCR-α was stabilized by the region implicated in Ube2G2 binding.
as §5

NIH 3T3 cells [1] = experiment: UPR markers in NIH 3T3 cells expressing GFP fusions
Description: as §4
(§6) Similarly, an increase in phospho-eIF2α, which attenuates translation and is activated by PERK, was also observed. […] An effective UPR ultimately requires an increase in ERAD. However, the ectopic expression of the Ube2G2 binding site should create a block specifically at this point.

J558 cells [2] = experiment: UPR markers in J558 myeloma cells expressing GFP fusions
Description: as §4
(§7) 24 hr after transfection with constructs encoding GFP or GFP fusion proteins, cells were stained with annexin V-PE (BD Pharmingen) and analyzed on a Beckman coulter XL. Data for J558 was average of three experiments, NIH 3T3 was from 2 experiments. Gates were set to analyze cells expressing GFP using 525 band-pass filter and evaluated for annexin V-PE staining using a 575 band-pass filter. To isolate cells expressing GFP, J558 cells were harvested 24 hr after transfection and sorted on a BD FACS Aria. Transfection efficiencies were 7-10%. 2×10^4 cells expressing GFP fusions were isolated.
Cells with active secretory pathways, such as myeloma, might be predicted to be particularly susceptible to ER stress. […] As with NIH 3T3 cells, expression of the Ube2G2 binding site in the well characterized myeloma cell line J558 led to increases in BiP and phospho-eIF2α.

J558 cells [3] = experiment: Annexin V staining by flow cytometry in J558 cells; conditions: 24 hours after transfection, vs GFP574-611E2-m2 or GFP alone
From the text: as §7
(§8) This was verified by a rapid loss of GFP immunoreactivity from cells expressing GFP574-611 (FIG. 7C). To confirm that this is a consequence of apoptosis, cells were evaluated by flow cytometry 24 hours after transfection. This early point was chosen, as by 48 hours few cells expressing the GFP574-611 could be discerned microscopically. […] Thus, the isolated Ube2G2 binding site of gp78 initiates an UPR in cells and a program leading to apoptotic cell death preferentially in myeloma cells.

NIH 3T3 cells [4] = experiment: Annexin V staining by flow cytometry in NIH 3T3 cells; conditions: 24 hours after transfection
From the text: as §7, §8

[5] = test system: HEK 293T cells or NIH 3T3 cells; experiment: Cell death by microscopy in HEK 293T or NIH 3T3 cells
From the text: as §6

[6] = test system: human multiple myeloma cells; experiment: Ube2G2 binding site expression in human myeloma
HeLA, U20S and HT1080 = experiment: Cell death in epithelial cancer and sarcoma cell lines
From the text: as §6

J558 cells [7] = experiment: Loss of J558 cells expressing GFP fusions by microscopy; conditions: relative to GFP574-611E2-m2
Description: as §8

T3 sequence (P62837 whole entry, the tested form may be a part): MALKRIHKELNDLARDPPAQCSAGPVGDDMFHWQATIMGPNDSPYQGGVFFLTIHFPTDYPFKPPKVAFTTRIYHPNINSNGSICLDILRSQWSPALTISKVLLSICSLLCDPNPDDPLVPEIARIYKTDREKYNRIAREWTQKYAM

## GFP-574-611: N-terminal GFP fusion of gp78 residues 574-611, a minimal E2 binding domain (SADERQRMLVQRKDELLQQARKRFLNKSSEDDAASESF; listed as Homo sapiens)
Endogenous Ube2G2
  co-immunoprecipitation of endogenous Ube2G2: sufficient to co-immunoprecipitate endogenous Ube2G2
Endogenous Ube2g1
  co-immunoprecipitation of endogenous Ube2G1: not co-immunoprecipitated
Endogenous UbcH5B
  co-immunoprecipitation of endogenous UbcH5B: not co-immunoprecipitated
ERAD substrate CD3-δ
  effect on CD3-δ level (stabilization): dramatically stabilized CD3-δ
ERAD substrate CD3-δ; listed as 574-611
  effect on CD3-δ level (stabilization): sufficient to stabilize CD3-δ
ERAD substrate TCR-α; listed as G2BD
  effect on TCR-α level (stabilization): stabilized
ERAD substrate TCR-α; listed as Ube2G2 binding site
  effect on TCR-α level (stabilization): markedly stabilized TCR-α
NIH 3T3 cells [1]
  CHOP accumulation: no accumulation
  ER chaperone BiP level: increase
  phospho-eIF2α level: increase
  total eIF2α level: not significantly altered
NIH 3T3 cells [1]; GFP immunoblot
  loss of GFP fusion relative to mutant form: nor was there any discernable loss
J558 cells [2]
  BiP level: increases
  CHOP level: marked increase
  GFP immunoreactivity over time: rapid loss
  phospho-eIF2α level: increases
J558 cells [3]
  annexin V staining (apoptosis marker): dramatic increase
NIH 3T3 cells [4]
  annexin V staining (apoptosis marker): No significant increase
[5]
  cell death by microscopy: no microscopic evidence of increased cell death
[6]
  apoptosis in human myelomas: leads to apoptosis
HeLA, U20S and HT1080
  cell death: lack of increased cell death
J558 cells [7]
  loss of cells expressing the GFP fusion, by microscopy: differential loss
